# Experimental data from patent publication US10947205B2, “Oxazolidinone compounds and methods of use thereof as antibacterial agents” (priority 2015, dated 2021).
# Like-named read-outs stand apart in the source and are kept apart here.
# Key:
# [1] = system: mitochondrial protein synthesis in HepG2 cells (COX-I / SDH-A); test: Mitochondrial protein synthesis assay; format: cell-based; conditions: Homo sapiens, read-out: MPS IC50_μM
# Procedure: (§1) Inhibition of mitochondrial protein synthesis was assessed in HepG2 cells by comparing the levels of two subunits of oxidative phosphorylation enzyme complexes, subunit I of Complex IV (COX-I) and the 70 kDa subunit of Complex II (SDH-A). COX-I is mitochondrial DNA encoded and SDH-A is nuclear DNA encoded. HepG2 cells were seeded in 96-well collagen coated plates at 8,000 cells per well and exposed to 2-fold serial dilutions of compounds from 100 LM to 6.25 μM. Microtiter plates were incubated for approximately 5 replication cycles (4 days) prior to assessment of protein levels using a kit as described by the manufacturer (ab 110217 MitoBiogenesis In Cell ELISA Kit, Abcam, Cambridge, Mass.). Inhibition of mitochondrial protein synthesis was expressed as a ratio of COX-1 to SDH-A levels.
# as §1, with “μM” for “LM”
# [2] = system: Mycobacterium tuberculosis (Mtb); test: microbe, parasite or virus in culture; format: cell-based, Mycobacterium tuberculosis H37Rv (Mtb-GFP); conditions: 168 h
# [3] = system: Staphylococcus aureus (methicillin resistant, MB5393, COL); test: microbe, parasite or virus in culture; format: cell-based; conditions: MRSA, 22 h, read-out: MRSA COL MITC95 μM
# Procedure: Inhibition of Staphylococcus aureus (methicillin resistant, MB5393, COL) growth was assessed in cation adjusted Mueller Hinton II broth (CAMHB) in 384-well microtiter plates. Bacteria were dispensed into microtiter plates at approximately 5×10^5 actively growing cells in 49 μL volumes per well. Cells were exposed to 2-fold serial dilutions of compounds from 200 μM to 0.195 μM and growth compared to drug-free control. Compound dilutions were prepared in 100% dimethylsulfoxide and added to microtiter plates in 1 μL volumes per well. Full growth control wells contained dimethylsufoxide and bacteria. No growth control wells contained dimethysulfoxide and CAMHB but no bacteria. Growth inhibition was assessed after a 22-hour growth period by measuring optical density using a spectrophotometer. The lowest concentration of test compound required to inhibit 95% of the growth of the bacteria was defined as the MITC95. All studies were done in a BSL2 facility.
# [4] = 96 h, HepG2 cells, 4 days, ratio of COX-1 to SDH-A levels
# [5] = pH 6.8, read-out: Mtb Cho MITC95_μM
# [6] = pH 6.8, read-out: Mtb Glu MITC95_μM
SMILES,"IC50 [1, 4]","MIC [2, 5]","MIC [2, 6]",MIC [3],"IC50 ([1]; HepG2, 96 h)"
"NC[C@H]1CN(c2ccc(-c3ccn4ncnc4c3)c(F)c2)C(=O)O1 [Example 8, (5S)-5-(aminomethyl)-3-(3-fluoro-4-[1,2,4]triazolo[1,5-a]pyridin-7-ylphenyl)-1,3-oxazolidin-2-one]",> 20 µM,0.04 µM,0.04 µM,200 µM,
"CSc1cccc(-c2ccc(N3C[C@H](CN)OC3=O)cc2F)c1 [Example 3, (5S)-5-(aminomethyl)-3-[2-fluoro-3′-(methylsulfanyl)biphenyl-4-yl]-1,3-oxazolidin-2-one]",> 20 µM,0.78 µM,1.14 µM,100 µM,
"CSc1ccc(-c2ccc(N3C[C@H](Cn4cncn4)OC3=O)cc2F)cc1 [Example 43, (R)-5-((1H-1,2,4-triazol-1-yl)methyl)-3-(2-fluoro-4′-(methylthio)-[1,1′-biphenyl]-4-yl)oxazolidin-2-one]",> 20 µM,0.19 µM,0.58 µM,200 µM,
"CCNC(=O)NC[C@H]1CN(c2ccc(-c3ccc(SC)cc3)c(F)c2)C(=O)O1 [Example 58, (S)-1-ethyl-3-((3-(2-fluoro-4′-(methylthio)-[1,1′-biphenyl]-4-yl)-2-oxooxazolidin-5-yl)methyl)urea]",,0.19 µM,0.58 µM,200 µM,> 20 µM
"NC[C@H]1CN(c2ccc(-c3ccc(S(N)(=O)=O)cc3)c(F)c2)C(=O)O1 [Example 6, 4′-[(5S)-5-(aminomethyl)-2-oxo-1,3-oxazolidin-3-yl]-2′-fluorobiphenyl-4-sulfonamide]",> 20 µM,0.04 µM,0.04 µM,100 µM,
"NC[C@H]1CN(c2ccc(-c3cncnc3)c(F)c2)C(=O)O1 [Example 25, (5S)-5-(aminomethyl)-3-(3-fluoro-4-pyrimidin-5-ylphenyl)-1,3-oxazolidin-2-one]",> 20 µM,0.19 µM,0.04 µM,200 µM,
"CSc1ccc(-c2c(F)cc(N3C[C@H](CNC(C)=O)OC3=O)cc2F)cc1 [Example 47, (S)—N-((3-(2,6-difluoro-4′-(methylthio)-[1,1′-biphenyl]-4-yl)-2-oxooxazolidin-5-yl)methyl)acetamide]",> 20 µM,0.01 µM,0.03 µM,0.781 µM,
"NC[C@H]1CN(c2ccc(-c3ccc(C4CC4)nc3)c(F)c2)C(=O)O1 [Example 33, (5S)-5-(aminomethyl)-3-[4-(6-cyclopropylpyridin-3-yl)-3-fluorophenyl]-1,3-oxazolidin-2-one]",> 20 µM,0.19 µM,0.845 µM,200 µM,
"NC[C@H]1CN(c2ccc(-c3cnc(N4CCCOCC4)nc3)c(F)c2)C(=O)O1 [Example 29, (5S)-5-(aminomethyl)-3-{3-fluoro-4-[2-(1,4-oxazepan-4-yl)pyrimidin-5-yl]phenyl}-1,3-oxazolidin-2-one]",> 25 µM,1.5 µM,0.39 µM,200 µM,
"NC[C@H]1CN(c2ccc(-c3ccc(C(N)=O)cc3)c(F)c2)C(=O)O1 [Example 2, 4′-[(5S)-5-(aminomethyl)-2-oxo-1,3-oxazolidin-3-yl]-2′-fluorobiphenyl-4-carboxamide]",> 25 µM,0.03 µM,0.02 µM,200 µM,
"NC[C@H]1CN(c2ccc(-c3ccc(Cl)nc3)c(F)c2)C(=O)O1 [Example 22, (5S)-5-(aminomethyl)-3-[4-(6-chloropyridin-3-yl)-3-fluorophenyl]-1,3-oxazolidin-2-one]",> 20 µM,0.19 µM,0.04 µM,100 µM,
"NC[C@H]1CN(c2ccc(-c3ccc4ncnn4c3)c(F)c2)C(=O)O1 [Example 5, (5S)-5-(aminomethyl)-3-(3-fluoro-4-[1,2,4]triazolo[1,5-a]pyridin-6-ylphenyl)-1,3-oxazolidin-2-one]",> 20 µM,0.09 µM,0.04 µM,200 µM,
"CC(C)(O)c1ncc(-c2ccc(N3C[C@H](CN)OC3=O)cc2F)s1 [Example 23, (5S)-5-(aminomethyl)-3-{3-fluoro-4-[2-(1-hydroxy-1-methylethyl)-1,3-thiazol-5-yl]phenyl}-1,3-oxazolidin-2-one]",> 20 µM,0.19 µM,0.19 µM,200 µM,
"NC[C@H]1CN(c2ccc(-c3ccc4c(c3)CNC4=O)c(F)c2)C(=O)O1 [Example 34, 5-{4-[(5S)-5-(aminomethyl)-2-oxo-1,3-oxazolidin-3-yl]-2-fluorophenyl}-2,3-dihydro-1H-isoindol-1-one]",> 20 µM,0.04 µM,0.04 µM,200 µM,
"CSc1ccc(-c2ccc(N3C[C@H](CN)OC3=O)cc2F)cc1 [Example 1, (S)-5-(aminomethyl)-3-(2-fluoro-4′-(methylthio)-[1,1′-biphenyl]-4-yl)oxazolidin-2-one]",12.2 µM,0.03 µM,0.04 µM,25 µM,
"NC[C@H]1CN(c2ccc(-c3ccnc(Cl)c3)c(F)c2)C(=O)O1 [Example 30, (5S)-5-(aminomethyl)-3-[4-(2-chloropyridin-4-yl)-3-fluorophenyl]-1,3-oxazolidin-2-one]",> 20 µM,0.39 µM,0.09 µM,200 µM,
"NC[C@H]1CN(c2ccc(-c3ccccc3)c(F)c2)C(=O)O1 [Example 39, (5S)-5-(aminomethyl)-3-(2-fluorobiphenyl-4-yl)-1,3-oxazolidin-2-one]",> 20 µM,0.78 µM,0.585 µM,200 µM,
"CSc1ccc(-c2ccc(N3C[C@H](COc4ccon4)OC3=O)cc2F)cc1 [Example 49, (R)-3-(2-fluoro-4′-(methylthio)-[1,1′-biphenyl]-4-yl)-5-((isoxazol-3-yloxy)methyl)oxazolidin-2-one]",> 20 µM,0.58 µM,0.58 µM,200 µM,
"NC[C@H]1CN(c2ccc(-c3ccc4nncn4c3)c(F)c2)C(=O)O1 [Example 9, (5S)-5-(aminomethyl)-3-(3-fluoro-4-[1,2,4]triazolo[4,3-a]pyridin-6-ylphenyl)-1,3-oxazolidin-2-one]",> 20 µM,0.14 µM,0.09 µM,200 µM,
"NC[C@H]1CN(c2ccc(-c3ccnc4[nH]ccc34)c(F)c2)C(=O)O1 [Example 31, (5S)-5-(aminomethyl)-3-[3-fluoro-4-(1H-pyrrolo[2,3-b]pyridin-4-yl)phenyl]-1,3-oxazolidin-2-one]",> 20 µM,0.78 µM,0.39 µM,200 µM,
"NC[C@H]1CN(c2ccc(-c3cccs3)c(F)c2)C(=O)O1 [Example 56, (S)-5-(aminomethyl)-3-(3-fluoro-4-(thiophen-2-yl)phenyl)oxazolidin-2-one]",> 20 µM,0.39 µM,0.39 µM,100 µM,
"CSc1ccc(-c2ncc(N3C[C@H](CNC(C)=O)OC3=O)cc2F)cc1 [Example 40, (S)—N-((3-(5-fluoro-6-(4-(methylthio)phenyl)pyridin-3-yl)-2-oxooxazolidin-5-yl)methyl)acetamide]",,0.09 µM,0.076 µM,4.69 µM,> 15 µM
"CSc1ncc(-c2ccc(N3C[C@H](CN)OC3=O)cc2F)cn1 [Example 32, (5S)-5-(aminomethyl)-3-{3-fluoro-4-[2-(methylsulfanyl)pyrimidin-5-yl]phenyl}-1,3-oxazolidin-2-one]",> 20 µM,0.29 µM,0.24 µM,200 µM,
"NCC(=O)NC[C@H]1CN(c2ccc(-c3ccc(C(N)=O)cc3)c(F)c2)C(=O)O1 [Example 57, (S)-4′-(5-((2-aminoacetamido)methyl)-2-oxooxazolidin-3-yl)-2′-fluoro-[1,1′-biphenyl]-4-carboxamide]",50 µM,0.535 µM,0.29 µM,25 µM,
